# Results published in patent publication US20250351832A1, “PHYTOCHEMICALS AS BIOPESTICIDES AND BIOSTIMULANTS” (KAY BEE BIO ORGANICS PVT. LTD., priority 2024, published 2025).
# Legend:
# Settings in all cases: dose 500 PPM
# [1] = test system: Rice Bacterial Blight (BLB) (Xanthomonas oryzae pv. Oryzae); type: in vivo
# [2] = test system: Cotton Bacterial Leaf Blight (Xanthomonas citri pv. Malvacearum); assay: Field trial, cotton bacterial leaf blight (Ex. 96)
# [3] = test system: Potato Bacterial Blight (BLB) (Ralstonia solanacearum); type: in vivo
smiles,measurement,setting,value
O=[N+]([O-])C(Br)(CO)CO [Bromopol],% Disease Infection after 1st spray,[1],22.18%
same,% Disease Infection after 2nd spray,[1],19.63%
same,% Disease Reduction Over Control after 1st spray,[1],61.71%
same,% Disease Reduction Over Control after 2nd spray,[1],74.02%
same,% Increase in yield over control,[1]; rice,8.31%
same,Yield,[1]; rice,4.09 t/ha
same,% Increase in yield over control,[2]; cotton,7.93%
same,Yield,[2]; cotton,24.96 qtl/ha
same,% Disease Infection after 1st spray,[2],30.65%
same,% Disease Infection after 2nd spray,[2],12.86%
same,% Disease Reduction Over Control after 1st spray,[2],47.43%
same,% Disease Reduction Over Control after 2nd spray,[2],81.68%
same,% Disease Infection after 1st spray,[3],24.49%
same,% Disease Infection after 2nd spray,[3],21.79%
same,% Disease Reduction Over Control after 1st spray,[3],53.59%
same,% Disease Reduction Over Control after 2nd spray,[3],71.13%
same,% Increase in yield over control,[3]; potato,7.64%
same,Yield,[3]; potato,22.24 t/ha
